Target: human NET (Homo sapiens, UniProt P23975)
Assay: NET transporter inhibitory activity test (neurotransmitter transporter uptake assay kit)
Assay type: cell-based
Protocol: Transporter inhibition of human DAT and NET expressed in HEK-293 cells was assessed using a neurotransmitter transporter uptake assay kit. The assay was performed as described in the kit instructions, using centanafadine as a positive control. The specific procedures were as follows:
First day cell plating: HEK 293T cells were digested with trypsin, centrifuged, resuspended with a medium, counted, and seeded into a 6 cm culture dish at a density of 3×10^6 cells/well.
Second day cell transfection: HEK 293T cells were subjected to medium exchange, and then A, B tubes were prepared for NET-pcDNA5/FRT plasmid to be transfected. 200 μL of Opti-MEM was added to tube A, and 10 μL of Lipofectamine™ 3000 was added. The mixture was mixed well. 200 μL of Opti-MEM was added to tube B, and 5 μg of NET-pcDNA5/FRT plasmid was added. The mixture was mixed well, and then 10 μL of P3000™ was added to tube B. The mixture was mixed well (plasmid to transfection reagent ratio 1 μg:2 μL). The diluted solution of tube A was added to the diluted solution of tube B. The mixture was mixed well, and incubated at room temperature for 15 min. Finally, the mixture was gently added to the cells that had been subjected to medium exchange, gently shaken to mix, and then incubated overnight in an incubator at 37° C. with a carbon dioxide concentration of 5%. The cells were used for compound functional activity assays 18-20 h after transfection.
• a) After overnight transfection of NET cells, the cells were digested with trypsin, resuspended with DMEM+10% Dialyzed FBS medium, seeded into a 384-well plate at 20000 cells/well, and incubated overnight. Stably transfected DAT cells were digested with trypsin, resuspended with DMEM+10% Dialyzed FBS medium, seeded into a 384-well plate at 2500 cells/well, and incubated overnight. • b) 1× Assay buffer was prepared according to the kit instruction for later use; the positive compound and the test compound were serially diluted with DMSO, and then diluted to 2× with 1× assay buffer. • c) The medium was removed from the 384-well plate by centrifugation. • d) 16 μL of the compound prepared in step b) was added to corresponding experimental wells, wherein an initial concentration of 2× positive control compound was added to the positive control well, and 0.2% DMSO buffer was added to the negative control well. After centrifuging, the plate was incubated at 37° C. for 30 min. • e) A detection reagent was prepared using 1×HBSS, and 16 μL of the detection reagent was added to each well. After centrifuging, the plate was incubated at 37° C. for 60 min. • f) After incubation, the reading at 510 nm under the excitation of the detection wavelength of 425 nm was measured using a microplate reader. Curve fitting and IC50 calculation were performed using GraphPad Prism software nonlinear regression method.

Chain of human NET (P23975 whole entry): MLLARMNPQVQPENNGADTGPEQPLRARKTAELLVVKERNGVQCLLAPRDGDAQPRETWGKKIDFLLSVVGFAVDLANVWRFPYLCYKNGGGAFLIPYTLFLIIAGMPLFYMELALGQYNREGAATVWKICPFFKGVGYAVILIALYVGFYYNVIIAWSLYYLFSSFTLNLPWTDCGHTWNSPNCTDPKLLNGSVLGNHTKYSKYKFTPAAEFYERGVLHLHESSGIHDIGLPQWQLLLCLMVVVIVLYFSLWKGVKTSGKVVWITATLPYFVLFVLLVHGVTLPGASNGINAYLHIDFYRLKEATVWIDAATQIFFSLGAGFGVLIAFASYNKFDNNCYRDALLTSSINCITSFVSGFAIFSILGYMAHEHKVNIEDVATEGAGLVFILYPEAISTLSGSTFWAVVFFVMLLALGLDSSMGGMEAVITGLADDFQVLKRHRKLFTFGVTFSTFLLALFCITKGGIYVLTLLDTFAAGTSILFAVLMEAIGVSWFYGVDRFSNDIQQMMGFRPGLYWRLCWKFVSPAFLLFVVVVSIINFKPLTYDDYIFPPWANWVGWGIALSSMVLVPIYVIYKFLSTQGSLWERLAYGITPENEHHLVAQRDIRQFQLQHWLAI

CCNC1(c2ccccc2)CCc2nc(N)sc2C1 (racemic) [rac-A5, N^6-ethyl-6-phenyl-4,5,6,7-tetrahydrobenzothiazole-2,6-diamine]
IC50: 3.3 µM

Source: patent publication US20260174739A1 (priority 2022, published 2026)
